Here are results for one compound from patent US11376268B2, “Methods and materials for treating human immunodeficiency virus infections” (priority 2015, dated 2022).

Assay [1] relates to UPR pathway. Put plainly: UPR pathway activation in J Lat cells: phospho PERK, phospho IRE1, JNK (FIG. 12). Type of assay: cell-based. Conditions: bortezomib (10 nM) or ixazomib (50 nM). How it is done: FIG. 12. J-LAT-10.6 or Jurkat cells were treated with bortezomib (10 nM) or ixazomib (50 nM) for the indicated times. Bortezomib and ixazomib induced phospho PERK, phospho IRE1, and JNK activation in J Lat cells, indicating the activation of the UPR pathway.

Assay [2] deals with UPR pathway. Put plainly: UPR pathway activation in J Lat cells: ATF4 and CHOP nuclear translocation, ATF6 cleavage (FIG. 13). Type of assay: cell-based. The conditions noted are these: bortezomib (10 nM) or ixazomib (50 nM). As for the experimental part: FIG. 13. J-LAT-10.6 or Jurkat cells were treated with bortezomib (10 nM) or ixazomib (50 nM) for the indicated times. Bortezomib and ixazomib induced ATF4 and CHOP translocation into the nucleus, and ATF6 cleavage in J Lat cells, indicating the activation of the UPR pathway.

Assay [3] deals with HIV-LTR. Put plainly: Luc expression in primary CD4 T cells infected with HIV luc or transfected with HIV-LTR Luc (FIG. 9). The conditions noted are these: primary CD4 T cells infected with HIV luc or transfected with HIV-LTR Luc and TK renilla. Type of assay: cell-based. As for the experimental part:
Primary CD4 T cells infected with HIV luc (top panel) or primary CD4 T cells transfected with HIV-LTR Luc and co-transfected TK renilla (bottom panel) were treated with the indicated doses of bortezomib or ixazomib, and analyzed for Luc expression as a measure of HIV reactivation.

Assay [4] deals with J-Lat cells (a model of HIV latency, using GFP tagged HIV). Put plainly: J-Lat cells flow cytometry for HIV GFP expression and activated caspase 3 (FIG. 6). Type of assay: cell-based. The conditions noted are these: 24 hours, bortezomib 1, 10, or 20 nM, MLN-2238 (ixazomib) 10 or 50 nM. How it is done:
FIG. 6 contains flow cytometry results of J-Lat cells (a model of HIV latency, using GFP tagged HIV) treated with nothing, bortezomib (1, 10, or 20 nM), or MLN-2238 (ixazomib; 10 or 50 nM) and analyzed 24 hours later for activated caspase 3 expression and for HIV expression.
For orientation: Flow cytometry measures light scatter and fluorescence of single cells or particles in a stream.

In assay [5] the test system is HDAC-1. Kind of assay: HDAC-1 expression in primary CD4 T cells (FIG. 11). Type of assay: cell-based. How it is done:
(§1) FIG. 11. […] Proteosome inhibitors were analyzed for the ability to alter the expression of HDAC. Bortezomib and ixazomib decreased HDAC-1, HDAC-3, and HDAC-4 expression in primary CD4 T cells.

Assay [6] concerns J-Lat cells (a model of HIV latency using GFP HIV). Kind of assay: J-Lat cells time course flow cytometry (FIG. 8). Type of assay: cell-based. Conditions: analyzed at 24, 48, and 72 hours. As for the experimental part: J-Lat cells (a model of HIV latency using GFP HIV) were treated with bortezomib or ixazomib at the indicated doses and analyzed at 24, 48, and 72 hours.
In assay [7] the test system is HDAC-3. Kind of assay: HDAC-3 expression in primary CD4 T cells (FIG. 11). Type of assay: cell-based. As for the experimental part:
as §1

Assay [8] has as its system CD4 T cells from an HIV positive patient with ART suppressed HIV replication. Kind of assay: Flow cytometry of CD4 T cells from an HIV positive patient for intracellular p24 and activated caspase 3 (FIG. 7). Type of assay: cell-based, human. Conditions: 48 hours. As for the experimental part: FIG. 7 contains flow cytometry results of CD4 T cells from an HIV positive patient with ART suppressed HIV replication. Cells were treated with bortezomib or MLN-2238 (ixazomib) at the indicated doses and analyzed 48 hours later for intracellular p24 expression (as a measure of HIV reactivation), and for activated caspase 3 expression (as a measure of cell death).

Assay [9] concerns HDAC-4. Put plainly: HDAC-4 expression in primary CD4 T cells (FIG. 11). Type of assay: cell-based. As for the experimental part:
as §1

`CC(C)C[C@H](NC(=O)[C@H](Cc1ccccc1)NC(=O)c1cnccn1)B(O)O` [bortezomib, N-pyrazinecarbonyl-L-phenylalanine-L-leucine boronic acid]: in [1], the JNK activation result is “induced”, the “phospho IRE1” value is “induced” and the “phospho PERK” value was “induced”. Moreover, in assay [2], the “ATF4 translocation into the nucleus” value is on record as “induced”, the ATF6 cleavage entry is on record as “induced” and the “CHOP translocation into the nucleus” value was “induced”. For the same compound, the “HIV reactivation (Luc expression)” value in assay [3] is listed as “independently reactivated HIV”. In addition, in assay [4], the “HIV reactivation (HIV GFP expression)” value is on record as “caused HIV reactivation as indicated by increased HIV GFP expression” and the “death of HIV GFP positive cells (activated caspase 3 expression)” value is “caused HIV GFP positive cells to die”. In addition, the HDAC-1 expression entry in [5] is given as “decreased”. In addition, the “HIV reactivation from latency” value in [6] was “caused HIV reactivation from latency”. Further, the HDAC-3 expression result in assay [7] is recorded as “decreased”. In assay [8], the “HIV reactivation (intracellular p24 expression)” value is “caused HIV reactivation as indicated by increased HIV p24 expression” and the “death of HIV positive cells (activated caspase 3 expression in p24 positive cells)” value is recorded as “caused HIV positive cells to die”. In addition, the HDAC-4 expression result in assay [9] is “decreased”.
